Experimental data: ChEMBL document CHEMBL1159375, “Absolute configuration and complete assignment of 13C NMR data for new sesquiterpenes from Maytenus chiapensis” (2003)

Test system: Leishmania tropica
Test: Growth inhibition of multidrug-resistant Leishmania tropica overexpressing P-glycoprotein-like transporter at 60 uM
Format: functional
Design: scale not given: the % may be the effect or the level left

**Q.** Which Activity does the source give for `CC(=O)OC[C@]12[C@H](OC(C)=O)C(=O)[C@@H]3[C@@H](OC(C)=O)[C@]1(O[C@@]3(C)COC(C)=O)[C@@](C)(O)[C@@H](OC(C)=O)[C@H](OC(C)=O)[C@@H]2OC(C)=O` here?
**A.** Its Activity is 28%.
